Test results published in ChEMBL document CHEMBL1138771, “Novel arylsulfoanilide-oxindole hybrid as an anticancer agent that inhibits translation initiation” (J Med Chem, 2004).

What was measured:
[1] = test system: A549; assay: Concentration required for growth inhibition of human lung cancer cells (A549); assay type: functional
[2] = test system: NIH 3T3 (Mus musculus); assay: Ratio of the peak heights normalized to the peak of clotrimazole as a reference was a measure of intracellular [Ca2+] stores depletion in NIH 3T3 cell
[3] = test system: DU-145; assay: Concentration required for growth inhibition of human prostate cancer cells (DU145) was determined; assay type: functional, cell-based

SMILES	GI50 [1]	Ratio [2]	IC50 [3]
Cc1ccc(NS(=O)(=O)c2ccc(Oc3ccccc3)cc2)cc1O	7 µM	1.1	–
O=S(=O)(Nc1ccccc1)c1ccc(-c2ccccc2)cc1	17 µM	1.37	–
CC(C)(C)c1ccc(S(=O)(=O)Nc2ccccc2O)cc1	13 µM	1.17	–
O=S(=O)(Nc1ccccc1)c1ccc(I)cc1	23 µM	0.87	–
Cc1ccc(NS(=O)(=O)c2ccc(C(C)(C)C)cc2)cc1O	6 µM	1.12	–
Cc1ccc(NS(=O)(=O)c2ccc(-c3ccccc3)cc2)cc1O	9 µM	0.72	–
CC(=O)Nc1ccc(S(=O)(=O)Nc2ccc(C)c(O)c2)cc1	48 µM	0.19	–
O=S(=O)(Nc1ccccc1)c1ccccc1 [PHENYL(PHENYLSULFONYL)AMINE]	> 80 µM	0	–
O=S(=O)(Nc1ccccc1)c1ccc(Br)cc1	30 µM	0.38	–
COc1ccc(S(=O)(=O)Nc2ccccc2)cc1	16 µM	0.63	–
CC(C)(C)c1ccc(S(=O)(=O)Nc2ccccc2)cc1	16 µM	1.44	–
COc1ccc(S(=O)(=O)Nc2ccc(C)c(O)c2)cc1	51 µM	0.12	–
Cc1cc(O)c(NS(=O)(=O)c2ccc(C(C)(C)C)cc2)cc1C1(c2ccccc2)C(=O)Nc2ccccc21 (stereo unspecified)	> 20 µM	0.44	–
Cc1ccc(NS(=O)(=O)c2ccc(C(C)(C)C)cc2)c(O)c1	8 µM	1.44	–
CC(C)(C)c1ccc(S(=O)(=O)Nc2ccc(O)cc2)cc1	14 µM	0.33	–
CC(C)(C)c1ccc(O)c(C2(c3ccccc3)C(=O)Nc3ccccc32)c1 (stereo unspecified)	3 µM	1.1	2.49 µM
O=C1Nc2ccccc2C1(c1ccccc1)c1ccccc1	13 µM	0.87	12.5 µM
Cc1cc(C2(c3ccccc3)C(=O)Nc3ccccc32)c(NS(=O)(=O)c2ccc(Oc3ccccc3)cc2)cc1O (stereo unspecified)	5 µM	0	–
Cc1cccc(NS(=O)(=O)c2ccc(C(C)(C)C)cc2)c1	80 µM	0.95	–
CN(c1ccccc1)S(=O)(=O)c1ccc(C(C)(C)C)cc1	30 µM	0.14	–
Cc1ccc(NS(=O)(=O)c2ccc([N+](=O)[O-])cc2)cc1O	29 µM	0.14	–
O=[N+]([O-])c1ccc(S(=O)(=O)Nc2ccccc2)cc1	52 µM	0.13	–
Cc1cc(C2(c3ccccc3)C(=O)Nc3ccccc32)c(NS(=O)(=O)c2ccc(C(C)(C)C)cc2)cc1O (stereo unspecified)	0.8 µM	1.06	1.08 µM
Cc1ccccc1NS(=O)(=O)c1ccc(C(C)(C)C)cc1	> 80 µM	0.49	–
Cc1ccc(NS(=O)(=O)c2ccc(Br)cc2)cc1O	20 µM	0.27	–
CC(C)(C)c1ccc(S(=O)(=O)Nc2cccc(O)c2)cc1	12 µM	0.55	–
Cc1ccc(NS(=O)(=O)c2ccc(C(C)(C)C)cc2)cc1	11 µM	1.11	–
Cc1cc(C2(c3ccccc3)C(=O)Nc3ccccc32)c(NS(=O)(=O)c2ccc(-c3ccccc3)cc2)cc1O (stereo unspecified)	4 µM	0	–
Cc1ccc(NS(=O)(=O)c2ccc(I)cc2)cc1O	15 µM	0.45	–
